Like-named read-outs stand apart in the source and are kept apart here.
How the values were obtained:
[1] = tested on: NF-κB; format: cell-based
[2] = tested on: NF-κB; format: cell-based, human
[3] = tested on: NF-κB; format: biochemical
[4] = in vitro
[5] = tested on: IκBa; format: cell-based, human
[6] = tested on: p50; format: cell-based
[7] = tested on: IκBa promoter linked to the CAT gene; format: cell-based
[8] = tested on: c-Rel; format: cell-based
[9] = tested on: p65; format: cell-based, human
[10] = tested on: NF-κB; format: cell-based, human; remark: listed apart in the source
[11] = tested on: NF-κB; format: cell-based, human; remark: listed apart in the source
[12] = tested on: NF-κB; format: cell-based, human; remark: listed apart in the source
[13] = tested on: NF-κB; format: cell-based; remark: listed apart in the source
[14] = tested on: NF-κB; format: cell-based, human; remark: listed apart in the source
[15] = tested on: AP-1; format: cell-based; settings: 25 μg/ml, 2 hours
[16] = tested on: IκBa; format: cell-based, human; remark: listed apart in the source
[17] = in vitro; settings: human, u937 cells
[18] = tested on: p65; format: cell-based, human; remark: listed apart in the source
[19] = tested on: Oct-1; format: cell-based; settings: 25 μg/ml, 2 hours
[20] = tested on: NF-κB; format: biochemical, human
[21] = tested on: TFII D; format: cell-based; settings: 25 μg/ml, 2 hours

## COc1cc(CNC(=O)CCCCC=CC(C)C)ccc1O [capsaicin, 8-methyl-N-vanillyl-6-nonenamid]
[1]
  concentration with almost complete inhibition of TNF-induced NF-κB: 200 µM
[2]
  NF-κB activation on co-incubation with TNF: did not block NF-κB activation
  activation of NF-κB by 10 nM TNF: completely inhibited
  activation of NF-κB by the substance itself: did not activate NF-κB
  concentration that inhibited most of the activation induced by TNF: 200 to 300 µM
  pre-incubation time for maximum inhibition of the response to TNF: 120 min
[3]
  ability of NF-κB to bind to the DNA, deoxycholate-treated cytoplasmic extracts from capsaicin-exposed cells: did not modify
  ability of NF-κB to bind to the DNA, nuclear extracts exposed to capsaicin after TNF treatment: did not modify
[4]
  viability at 2 h, 100 µM: 99%
  viability at 2 h, 200 µM: 98%
  viability at 2 h, 300 µM: 95%
[5]
  TNF-mediated degradation of IκBa: abolished
  appearance of TNF-mediated slower-migrating band of IκBa: abolished
  level of cytoplasmic IκBa, capsaicin alone: remained unaffected
[6]
  level of p50 protein in cytosolic fraction: neither capsaicin by itself or in combination with TNF had any effect
[7]
  TNF-enhanced CAT activity, pIκBCAT-transfected cells: reduced significantly
[8]
  level of c-Rel protein in cytosolic fraction: neither capsaicin by itself or in combination with TNF had any effect
[9]
  TNF-induced migration of p65 into the nucleus: did block the TNF-induced migration
  level of cytoplasmic p65, capsaicin alone: remained unaffected
  migration of p65 protein into the nucleus, capsaicin by itself: did not induce this migration
[10]
  concentration with almost complete inhibition of TNF-induced NF-κB: 200 µM
[11]
  NF-κB activation mediated through okadaic acid: inhibited only partially
  phorbol myristate acetate-induced activation of NF-κB: completely blocked

## O=C(C=Cc1ccc(O)c(O)c1O)OCCc1ccccc1 [compound 3]
[12]
  activity in inhibiting NF-κB activation relative to CAPE: less active than CAPE
  effect of CAPE analogues on TNF-induced NF-κB activation: loss of potency

## O=C(C=Cc1cc(O)ccc1O)OCCc1ccccc1 [compound 1]
[12]
  activity in inhibiting NF-κB activation relative to CAPE: as active as CAPE
  effect of CAPE analogues on TNF-induced NF-κB activation: increased the potency of inhibition

## C=C(C)[C@]12C[C@@H](C)[C@@]34O[C@](Cc5ccccc5)(O[C@@H]1[C@@H]3C=C(COC(=O)Cc1ccc(O)c(OC)c1)C[C@]1(O)C(=O)C(C)=C[C@@H]41)O2 [resiniferatoxin]
[13]
  TNF-mediated activation of NF-κB: completely inhibited
  activation of NF-κB by the substance itself: did not activate NF-κB
  concentration sufficient for maximum inhibition of the TNF response: 40 µM
  potency relative to capsaicin: approximately 8 fold

## O=C(C=Cc1ccc(O)c(O)c1)OCCCc1ccccc1 [compound 4]
[12]
  activity in inhibiting NF-κB activation relative to CAPE: less active than CAPE
  effect of CAPE analogues on TNF-induced NF-κB activation: significant loss of inhibition

## O=C(/C=C/c1ccc(O)c(O)c1)OCCc1ccccc1 [CAPE, caffeic acid (3,4-dihydroxy cinnamic acid) phenethyl ester]
[14]
  activation of NF-κB induced by H2O2: completely blocked
  activation of NF-κB induced by ceramide: completely blocked
  activation of NF-κB induced by okadaic acid: completely blocked
  activation of NF-κB induced by phorbol myristate acetate: completely blocked
[12]
  CAPE-induced inhibition of NF-κB activation in the presence of reducing agents: reversed completely
  activation of NF-κB by the substance alone: No activation
  concentration with maximum effect on TNF-dependent activation of NF-κB: 25 µg/mL
  inhibition of TNF-dependent activation of NF-κB: inhibited the TNF-dependent activation of NF-κB in a dose-dependent manner
  kinetics of inhibition of TNF response: cotreatment with TNF: not effective
  kinetics of inhibition of TNF response: pretreatment: inhibited only when the cells were pretreated
[15]
  DNA-binding ability of AP-1: did not inhibit
[16]
  TNF-induced rate of degradation of IκBa: did not affect significantly
  cytoplasmic pool of IκBa, substance alone: no effect
  resynthesis of IκBa after TNF: did delay its resynthesis
[17]
  viability: > 98%
[18]
  TNF-induced appearance of p65 in the nucleus: blocked
  cytoplasmic pool of p65: none of the treatments altered significantly
[19]
  DNA-binding ability of Oct-1: did not inhibit
[20]
  binding of NF-κB to DNA, deoxycholate-treated cytoplasmic extracts: interfered with the binding of NF-κB proteins to DNA
  binding of NF-κB to DNA, nuclear extracts from TNF-preactivated cells: prevented NF-κB from binding to DNA
[21]
  DNA-binding ability of TFII D: did not inhibit

## COc1ccc(C=CC(=O)OCCc2ccccc2)cc1OC [compound 2]
[12]
  activity in inhibiting NF-κB activation relative to CAPE: less active than CAPE

Reference: patent US5981583A (priority 1997, dated 1999)
